Test results as given in PMC4736406 (Stem Cells International, 2016).
Where a name gives a salt, the structure may show the parent alone.

What was measured:
HepG2 cells = assay: Image based high content analysis (HCA), fixed and live assays, in HepG2
Method: Briefly, the cells were grown in DMEM supplemented with 10% heat inactivated FBS, 1% penicillin-streptomycin (PEST), 1% sodium pyruvate, and 1% nonessential amino acids. Cells were passaged at 1 : 8 or 1 : 6 every 3-4 days when they reach 75–80% confluence. Seeding density was optimized for HCA application to ensure that the cells were in a monolayer (5000 cells per well in 96-well plates) for precise imaging. The cells were grown for 48 h to attach and stabilize. The experiments performed with HepG2 cells were designed to ensure that each assay was performed with cells in a similar growth phase.
Each concentration was assayed in triplicate wells. […] The experimental process is illustrated in Figure 2.
And finally, TOTO-3 was used for assessing PMP.
The cells were imaged using an Olympus ScanR system.
All other fluorescence signals were considered as subobjects.

[1] = system: hiPSC derived hepatocytes (hiPS-HEP);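 further: hiPS-HEP obtained from ChiPSC4 through definitive endoderm under serum- and feeder-free conditions in 96-well plates, fluorescence imaging, each concentration run in triplicate wells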
Description: (§1) For hepatic differentiation, a serum- and feeder-free procedure recapitulating liver development was applied. First, ChiPSC4 was guided to differentiate into definitive endoderm using the Cellartis DE Diff Kit (Takara Bio Europe AB; Y30030), containing complete media and coating solution for differentiation of hPSC to DE cells in 2D culture. On day 7 of differentiation, the DE cells were enzymatically dissociated and reseeded into fibronectin coated 96-well plates. […] Wells of 96-well plates were coated by adding fibronectin solution 0.15 mL per cm^2 to the wells and let to incubate for >60 min at RT. […] Next, the cell suspension was centrifuged for 5 min at 300 g at RT, the supernatant was removed, and the cell pellet was resuspended in warm Hepatocyte Thawing and Seeding medium (Cellartis Hepatocyte Diff Kit; Takara Bio Europe AB; Y30050). Prior to seeding of cells, excess coating was removed and 150 K DE cells/cm^2 were seeded in the 96-well plates. On days 9 and 11 (counted from the start of ChiPSC4 differentiation), medium was changed using Hepatocyte Progenitor Medium (Cellartis Hepatocyte Diff Kit).
(§2) The cells were treated for 48 h with compounds at varying concentrations (half log dilution from the top concentration). […] The stock solutions were prepared in DMSO or water and were diluted in culture medium to obtain the final concentration. Each concentration was assayed in triplicate wells. Vehicle control wells were included and the final DMSO concentration in the medium never exceeded 0.5% (v/v). Each batch had two plates each for fixed and live assays.
(§3) LipidTOX Green neutral lipids and LipidTox Red phospholipidosis were used for identifying neutral lipid and phospholipid formation within the cells. MMP changes (Δψm) within the cell were measured using MitoTracker orange. Carboxy-H2DCFDA (6-carboxy-2′,7′-dichlorodihydrofluorescein diacetate) an acetylated fluorescent was used for measuring ROS. And finally, TOTO-3 was used for assessing PMP.
(§4) The fluorescence probes were grouped into two sets according to their optical compatibility and requirement of fixed or live material. […] The fluorescent probes for neutral lipids and phospholipids required the cells to be fixed and were assigned to the fixed assay. The probes MitoTracker orange, carboxy-H2DCFDA, and TOTO-3 were assigned to the live assay.
(§5) Following compound incubation, probes were administered to the cultures of the live assay. […] After incubation for 45 min at optimal cell culture conditions, the cells were changed to phenol red (PR) free medium for live cell imaging. For fixed assay, LipidTox Red probe was added with the compounds, and after 48 h the cells were fixed in 4% PFA supplemented with 1X Hoechst stain for 30 min at room temperature. Subsequently, cells were washed with PBS^+/+ and 1X LipidTOX Green stain diluted in PBS^+/+ was incubated with the cells for 30 min at room temperature. The plates were imaged without removing the buffer with probe.
(§6) The cells were imaged using an Olympus ScanR system. Prior to image acquisition, the heating system and CO2 gas flow were started to ensure optimal conditions in the ScanR chamber for live cell analysis. The incubator was set to 37°C with 5% CO2 and relative humidity of 90%. […] 20X long distance objective with NA 0.45 was used to image distinct fluorescence channels. In order to cover the entire well and also to capture maximum cell events sixteen fields per well (4 × 4 tile grid spread equally) were imaged. The channel exposure time for LipidTOX Green, LipidTOX Red, MitoTracker orange, and carboxy-H2DCFHDA were set based on the fluorescence of the negative control wells and were set constant within each plate. Exposure time for Hoechst and TOTO-3 was set in the range of 1–10 ms depending on cellular fluorescence intensity.
(§7) The acquired images were analyzed using ScanR analysis program from Olympus.

[2] = plasma; no reference given; read-out: C max (maximum plasma concentration of the drug); cited from earlier work
[3] = system: hiPSC derived hepatocytes (hiPS-HEP); assay: Image based high content analysis (HCA), fixed and live assays, in hiPSC derived hepatocytes;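 further: hiPS-HEP obtained from ChiPSC4 through definitive endoderm under serum- and feeder-free conditions in 96-well plates, fluorescence imaging, each concentration run in triplicate wells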
Description: as §1, §2, §3, §4, §5, §6, §7

[4] = HepG2, fixed assay, 48 h, p<0.05 vs control
[5] = HepG2, fixed, at 100 µM (Amiodarone HCL at […])
[6] = HepG2, live assay, 48 h, p<0.05 vs control
[7] = HepG2, live, at 100 µM (Amiodarone HCL at […])
[8] = hiPSC derived hepatocytes, at concentrations higher than 100 μM, similar to control up to 100 μM

## C[C@H]1c2cccc(O)c2C(=O)C2=C(O)[C@]3(O)C(=O)C(C(N)=O)=C(O)[C@@H](N(C)C)[C@@H]3[C@@H](O)[C@@H]21 [Doxycycline, doxycycline]
HepG2 cells; HepG2, fixed assay, 48 h
  IC50/EC50 Nucleus Cell count: 165 µM
  IC50/EC50 Nucleus MI: 892 µM
  IC50/EC50 Steatosis Area: 398 µM
  IC50/EC50 Steatosis Count: 260 µM
HepG2 cells; HepG2, live assay, 48 h
  IC50/EC50 MMP MI: 622 µM
  IC50/EC50 Nucleus Cell count: 120.3 µM
  IC50/EC50 Nucleus MI: 153 µM
  IC50/EC50 ROS MI: 115 µM
HepG2 cells; human, 48 h
  MEC, MMP mean intensity: 1000 µM
  MEC, PMP mean intensity: 1000 µM
  MEC, ROS mean intensity: 316 µM
  MEC, nuclear changes area (NC, A): 1000 µM
  MEC, nuclear changes mean intensity (NC, MI): 1000 µM
  MEC, steatosis droplet count (S, C): 316 µM
  MEC, steatosis mean intensity (S, MI): 1000 µM
  MEC, viability cell count (V, CC): 316 µM
  Minimal effective concentration (MEC), viability cell count (V, CC): 100 µM
  SRI (steatotic risk index) Lipid: 36
  SRI (steatotic risk index) ROS: 36
  TR (toxicity risk): 11.4
[1]
  Effect on mitochondrial membrane: concentration dependent depolarization of the mitochondrial membrane
  Phospholipid parameters / accumulation of phospholipids: no changes were detected
  ROS levels: unaffected
[1]; human, 48 h
  Concentration at which increase in lipid accumulation / lipid droplets was observed: 320 µM
  MEC, MMP mean intensity: 1000 µM
  MEC, PMP mean intensity: 31.6 µM
  MEC, nuclear changes mean intensity (NC, MI): 100 µM
  MEC, steatosis droplet count (S, C): 316 µM
  MEC, steatosis mean intensity (S, MI): 1000 µM
  MEC, viability cell count (V, CC): 1000 µM
  Minimal effective concentration (MEC), viability cell count (V, CC): 100 µM
  SRI (steatotic risk index) Lipid: 36
  SRI (steatotic risk index) ROS: >114
  TR (toxicity risk): 3.6
[2]
  Cmax: 8.8 µM
[3]; hiPS-HEP, fixed assay, 48 h
  IC50/EC50 Nucleus Area: 96.1 µM
  IC50/EC50 Nucleus Cell count: 107 µM
  IC50/EC50 Nucleus MI: 47.2 µM
  IC50/EC50 Steatosis Count: 115 µM
  IC50/EC50 Steatosis MI: 441 µM
[3]; hiPS-HEP, live assay, 48 h
  IC50/EC50 MMP MI: 644 µM
  IC50/EC50 Nucleus Area: 204.3 µM
  IC50/EC50 Nucleus Cell count: 69.4 µM
  IC50/EC50 Nucleus MI: 120 µM
  IC50/EC50 PMP MI: 26.9 µM
  IC50/EC50 ROS MI: 10.5 µM
[3]; hiPSC derived hepatocytes
  Concentration from which effects on plasma membrane permeability (PMP) start: 32 µM
[3]; hiPSC derived hepatocytes, at 100 μM
  Cell count reduction: 50%

## CCCCc1oc2ccccc2c1C(=O)c1cc(I)c(OCCN(CC)CC)c(I)c1 [Amiodarone, amiodarone hydrochloride]
HepG2 cells; HepG2
  Detection of phospholipid accumulation / phospholipidosis: false negative prediction
HepG2 cells; HepG2, […] for amiodarone, 100 μM for the others
  Category based on degree of injury: severely
HepG2 cells; HepG2, at 100 µM (Amiodarone HCL at […])
  Severity (sum of individual scores, degree of injury): 20
HepG2 cells; HepG2, fixed assay, 48 h
  IC50/EC50 Nucleus Area: 39.5 µM
  IC50/EC50 Nucleus Cell count: 7.6 µM
  IC50/EC50 Nucleus MI: 140 µM
  IC50/EC50 Phospholipidosis Area: 7.3 µM
  IC50/EC50 Phospholipidosis Count: 8.9 µM
  IC50/EC50 Phospholipidosis MI: 35.6 µM
  IC50/EC50 Steatosis Area: 30.6 µM
  IC50/EC50 Steatosis Count: 19.5 µM
  IC50/EC50 Steatosis MI: 23.6 µM
HepG2 cells; [4]
  MEC, steatosis area (S, A): 125 µM
  MEC, steatosis mean intensity (S, MI): 39.5 µM
  Minimal effective concentration (MEC), viability cell count (V, CC): 4 µM
HepG2 cells; [5]
  Degree of injury score, Neutral Lipids Area: 0 (variation lower than 25%)
  Degree of injury score, Neutral Lipids C: 2 (variation 150-300%)
  Degree of injury score, Neutral Lipids MI: 3 (variation >300%)
  Degree of injury score, Nucleus Area: 1 (variation ± 20-40%)
  Degree of injury score, Nucleus CC: 3 (variation ± 60-100%)
  Degree of injury score, Nucleus MI: 1 (variation ± 20-40%)
  Degree of injury score, Phospholipids Area: 1 (variation 25-150%)
  Degree of injury score, Phospholipids C: 0 (variation lower than 25%)
  Degree of injury score, Phospholipids MI: 0 (variation lower than 25%)
HepG2 cells; HepG2, isomolar concentration of 100 µM ([…] for amiodarone)
  Degree of injury (category): Severe hepatotoxicity (severely toxic (≥15))
HepG2 cells; HepG2, live assay, 48 h
  IC50/EC50 MMP MI: 345 µM
  IC50/EC50 Nucleus Area: 29.1 µM
  IC50/EC50 Nucleus Cell count: 7.2 µM
  IC50/EC50 Nucleus MI: 25.0 µM
  IC50/EC50 PMP MI: 147 µM
  IC50/EC50 ROS MI: 4.6 µM
HepG2 cells; [6]
  MEC, MMP mean intensity: 12.5 µM
  MEC, ROS mean intensity: 12.5 µM
  MEC, viability cell count (V, CC): 12.5 µM
HepG2 cells; [7]
  Degree of injury score, MMP MI: 1 (variation ± 20-40%)
  Degree of injury score, Nucleus Area: 1 (variation ± 20-40%)
  Degree of injury score, Nucleus CC: 3 (variation ± 60-100%)
  Degree of injury score, Nucleus MI: 2 (variation ± 40-60%)
  Degree of injury score, PMP MI: 1 (variation ± 20-40%)
  Degree of injury score, ROS MI: 1 (variation ± 20-40%)
[1]; human, 48 h
  Concentration below which no cytotoxic effects were displayed: 12.5 µM

## CN(C)[C@@H]1C(O)=C(C(N)=O)C(=O)[C@@]2(O)C(O)=C3C(=O)c4c(O)cccc4[C@@](C)(O)[C@H]3C[C@@H]12 [Tetracycline, tetracycline hydrochloride]
HepG2 cells; HepG2
  Significant changes on MMP: not detected
HepG2 cells; HepG2, fixed assay, 48 h
  IC50/EC50 Nucleus Area: 464 µM
  IC50/EC50 Nucleus Cell count: 558 µM
  IC50/EC50 Nucleus MI: 348 µM
  IC50/EC50 Steatosis Area: 287 µM
  IC50/EC50 Steatosis Count: 36.3 µM
  IC50/EC50 Steatosis MI: 361 µM
HepG2 cells; HepG2, live assay, 48 h
  IC50/EC50 MMP MI: 265 µM
  IC50/EC50 Nucleus Area: 336 µM
  IC50/EC50 Nucleus Cell count: 836 µM
  IC50/EC50 Nucleus MI: 959 µM
  IC50/EC50 ROS MI: 1149 µM
HepG2 cells; human, 48 h
  MEC, PMP mean intensity: 1000 µM
  MEC, ROS mean intensity: 1000 µM
  MEC, nuclear changes area (NC, A): 316 µM
  MEC, phospholipidosis mean intensity (PL, MI): 100 µM
  MEC, steatosis droplet count (S, C): 100 µM
  MEC, steatosis mean intensity (S, MI): 100 µM
  Minimal effective concentration (MEC), viability cell count (V, CC): 316 µM
[1]
  Cytotoxic effects: minimal cytotoxic effects
  Phospholipid parameters / accumulation of phospholipids: not detected
  Significant changes in PMP: did not generate any significant changes
  Significant changes on MMP: not detected
[1]; human, 48 h
  Concentration at which increase in lipid accumulation / lipid droplets was observed: 32 µM
  Concentration at which mitochondrial membrane potential (MMP) increased: 32 µM
  Concentration at which nuclear changes were evident (nuclear intensity and area): 320 µM
  Concentration at which oxidative stress increased: 100 µM
  MEC, ROS mean intensity: 316 µM
  MEC, nuclear changes area (NC, A): 316 µM
  MEC, steatosis droplet count (S, C): 316 µM
  MEC, steatosis mean intensity (S, MI): 1000 µM
  MEC, viability cell count (V, CC): 1000 µM
  Minimal effective concentration (MEC), viability cell count (V, CC): 1000 µM
[2]
  Cmax: 14.2 µM
[3]; hiPS-HEP, fixed assay, 48 h
  IC50/EC50 Nucleus Area: 105 µM
  IC50/EC50 Nucleus Cell count: 432 µM
  IC50/EC50 Nucleus MI: 211 µM
  IC50/EC50 Steatosis Area: 213 µM
  IC50/EC50 Steatosis Count: 184 µM
  IC50/EC50 Steatosis MI: 418 µM
[3]; hiPS-HEP, live assay, 48 h
  IC50/EC50 Nucleus Area: 211 µM
  IC50/EC50 Nucleus Cell count: 243 µM
  IC50/EC50 Nucleus MI: 380 µM
  IC50/EC50 ROS MI: 160 µM
[3]; [8]
  Increase of mean nuclear intensity: 12%
  Increase of nuclear area: 14%
[3]; hiPSC derived hepatocytes, at the highest concentration
  Increase of PMP compared to the control: 8%

## O=C([O-])CC(O)(CC(=O)[O-])C(=O)[O-].[Na+].[Na+].[Na+] [Sodium citrate, sodium citrate]
HepG2 cells; [5]
  Degree of injury score, Phospholipids Area: 0 (variation lower than 25%)
  Degree of injury score, Phospholipids C: 1 (variation 25-150%)
  Degree of injury score, Phospholipids MI: 0 (variation lower than 25%)
HepG2 cells; HepG2 cultures, at 100 μM
  Score for phospholipidosis: false positive score
[3]; hiPSC derived hepatocytes, negative control substance
  Effects on all parameters measured over the whole dose range: No significant effects
